Assay results from the CheMixHub viscosity set.
Several values for one entry are separate records, joined by “and”; a condition that tells them apart may be missing. Equal entries are not always repeated.

Experiment: xn = mol fraction of the nth substance listed

ClC(Cl)(Cl)Cl + C1COCCO1
101 kPa
Conditions	viscosity
298.15 K, x1 = 0.1175	1.203 mPa·s
298.15 K, x1 = 0.219	1.208 mPa·s
298.15 K, x1 = 0.373	1.193 mPa·s
298.15 K, x1 = 0.5081	1.165 mPa·s
298.15 K, x1 = 0.675	1.093 mPa·s
298.15 K, x1 = 0.8092	1.009 mPa·s
298.15 K, x1 = 0.892	0.961 mPa·s
303.15 K, x1 = 0.675	1.007 mPa·s
303.15 K, x1 = 0.8092	0.938 mPa·s
303.15 K, x1 = 0.892	0.896 mPa·s
303.15 K, x2 = 0.0983	0.901 mPa·s
303.15 K, x2 = 0.1116	0.907 mPa·s
303.15 K, x2 = 0.112	0.922 mPa·s
303.15 K, x2 = 0.204	0.957 mPa·s
303.15 K, x2 = 0.2198	0.9914 mPa·s
303.15 K, x2 = 0.22	1.016 mPa·s
303.15 K, x2 = 0.2994	1.011 mPa·s
303.15 K, x2 = 0.4025	1.055 mPa·s
303.15 K, x2 = 0.4985	1.086 mPa·s
303.15 K, x2 = 0.53	1.163 mPa·s
303.15 K, x2 = 0.5302	1.163 mPa·s
303.15 K, x2 = 0.6286	1.164 mPa·s
303.15 K, x2 = 0.629	1.164 mPa·s
303.15 K, x2 = 0.7245	1.161 mPa·s
303.15 K, x2 = 0.725	1.161 mPa·s
303.15 K, x2 = 0.91	1.078 mPa·s and 1.092 mPa·s
308.15 K, x1 = 0.219	1.024 mPa·s
308.15 K, x1 = 0.5081	0.992 mPa·s
308.15 K, x1 = 0.675	0.93 mPa·s
308.15 K, x1 = 0.8092	0.871 mPa·s
308.15 K, x1 = 0.892	0.834 mPa·s
313.15 K, x1 = 0.1175	0.95 mPa·s
313.15 K, x1 = 0.219	0.945 mPa·s
313.15 K, x1 = 0.373	0.934 mPa·s
313.15 K, x1 = 0.5081	0.92 mPa·s
313.15 K, x1 = 0.675	0.866 mPa·s
313.15 K, x1 = 0.8092	0.81 mPa·s
313.15 K, x1 = 0.892	0.778 mPa·s
318.15 K, x1 = 0.1175	0.882 mPa·s
318.15 K, x1 = 0.219	0.876 mPa·s
318.15 K, x1 = 0.373	0.865 mPa·s
318.15 K, x1 = 0.5081	0.85 mPa·s
318.15 K, x1 = 0.675	0.806 mPa·s
318.15 K, x1 = 0.8092	0.757 mPa·s
318.15 K, x1 = 0.892	0.73 mPa·s

ClC(Cl)(Cl)Cl + C=C(C)C(=O)OC
303.15 K, 101 kPa
Conditions	viscosity [mPa·s]
x2 = 0.0997	0.7954
x2 = 0.1978	0.753
x2 = 0.4056	0.6767
x2 = 0.5067	0.641
x2 = 0.5941	0.6167
x2 = 0.7976	0.5599
x2 = 0.8944	0.536

ClC(Cl)(Cl)Cl + CC#N
viscosity [mPa·s], 101 kPa
Conditions	293.15 K	298.15 K	303.15 K	313.15 K	323.15 K
x2 = 0.007	0.954	0.883	0.813	0.74	0.638
x2 = 0.026	0.948	0.855	0.798	0.724	0.612
x2 = 0.084	0.906	0.862	0.831	0.736	0.659

CCCC(C)=O + CC(=O)O
viscosity [mPa·s], 101 kPa
Conditions	x2 = 0.0997	x2 = 0.1996	x2 = 0.2989	x2 = 0.3983	x2 = 0.5013	x2 = 0.6017	x2 = 0.6987	x2 = 0.8081	x2 = 0.8922
298.15 K	0.5074	0.5482	0.5923	0.6401	0.6986	0.7628	0.839	0.9225	1.011
308.15 K	0.4551	0.4882	0.5246	0.5655	0.6134	0.667	0.727	0.8006	0.878
318.15 K	0.4061	0.4339	0.4639	0.4989	0.5394	0.5838	0.635	0.6961	0.7519

ClC(Cl)(Cl)Cl + CC(=O)O
Conditions	viscosity [mPa·s]
298.15 K, 101 kPa, x2 = 0.1	0.84
298.15 K, 101 kPa, x2 = 0.22	0.822
298.15 K, 101 kPa, x2 = 0.31	0.811
298.15 K, 101 kPa, x2 = 0.39	0.808
298.15 K, 101 kPa, x2 = 0.63	0.832
298.15 K, 101 kPa, x2 = 0.72	0.863
298.15 K, 101 kPa, x2 = 0.79	0.9
298.15 K, 101 kPa, x2 = 0.91	1.007
298.15 K, 101.33 kPa, x2 = 0.214	0.82
298.15 K, 101.33 kPa, x2 = 0.418	0.804
298.15 K, 101.33 kPa, x2 = 0.608	0.816
298.15 K, 101.33 kPa, x2 = 0.805	0.92
303.15 K, 101 kPa, x1 = 0.0697	1.071
303.15 K, 101 kPa, x1 = 0.2172	0.995
303.15 K, 101 kPa, x1 = 0.7482	0.894
313.15 K, 101 kPa, x1 = 0.0697	0.982
313.15 K, 101 kPa, x1 = 0.2172	0.876
313.15 K, 101 kPa, x1 = 0.7482	0.791
323.15 K, 101 kPa, x1 = 0.0697	0.917
323.15 K, 101 kPa, x1 = 0.2172	0.804
323.15 K, 101 kPa, x1 = 0.7482	0.697
